The record followed here is PubChem BioAssay AID1259408 (Genetic Toxicology Data Bank (GENE-TOX), 2018).

The structures appear in SMILES notation. Activity calls are given as the source filed them. The rule behind the calls is not given here.

The subject of the series is GENE-TOX genotoxicity assays, various organisms and cells. The series can be described thus: GENE-TOX mutagenicity studies. Particulars: for call: Assay Type: In vivo carcinogenicity studies.
Setting [1] is: Species/Cell Type: Bacillus subtilis (H17 vs M45), Assay Type: Rec-assay, spot test, DNA effects (bacterial DNA repair), Assay Code: REW+, Evaluation Type: Evaluation A (Pre-1980).
[2] abbreviates: Species/Cell Type: Drosophila melanogaster, Assay Type: Sex-linked recessive lethal gene mutation, Assay Code: SRLT, Evaluation Type: Evaluation A (Pre-1980).
The mark [3] stands for this setting: Species/Cell Type: Human diploid fibroblasts, Assay Type: Unscheduled DNA synthesis (UDS) in vitro, DNA effects, Assay Code: UDH-, Evaluation Type: Evaluation A (Pre-1980).
Where [4] appears, read: Species/Cell Type: Saccharomyces cerevisiae, Assay Type: Mitotic recombination or gene conversion, Assay Code: YEC+, Evaluation Type: Evaluation A (Pre-1980).
Setting [5] is: Species/Cell Type: Saccharomyces cerevisiae, Assay Type: Mitotic recombination or gene conversion, Assay Code: YEH-, Evaluation Type: Evaluation A (Pre-1980).
The mark [6] stands for this setting: Species/Cell Type: Salmonella typhimurium (one or more of the five standard strains: TA98, TA100, TA1535, TA1537, and TA1538), Assay Type: Histidine reverse gene mutation, Ames assay, Assay Code: SALT, Evaluation Type: Evaluation A (Pre-1980).
[7] abbreviates: Species/Cell Type: Nonhuman, Assay Code: CCG+, Evaluation Type: Evaluation A (Pre-1980).
Setting [8] is: Species/Cell Type: Escherichia coli polA (W3119 vs P3478), Assay Type: Rec-assay, DNA effects (bacterial DNA repair), Assay Code: RE1T, Evaluation Type: Evaluation A (Pre-1980).
The mark [9] stands for this setting: Species/Cell Type: Mammalian polychromatic erythrocytes, Assay Type: Micronucleus test, chromosome aberrations, Assay Code: MNT+, Evaluation Type: Evaluation B (Post-1980).
Setting [10] is: Species/Cell Type: Human lymphocytes, Assay Type: Sister-chromatid exchange (SCE) in vitro, Assay Code: SCL+D, Dose Response: With dose response, Evaluation Type: Evaluation B (Post-1980).
Setting [11] is: Species/Cell Type: Human, Assay Type: Sister-chromatid exchange (SCE) in vitro, Assay Code: SC1+D, Dose Response: With dose response, Evaluation Type: Evaluation B (Post-1980).
Setting [12] is: Species/Cell Type: Rat primary hepatocytes, Assay Type: Unscheduled DNA synthesis (UDS) in vitro, DNA effects, Assay Code: UDP+D, Dose Response: With dose response, Evaluation Type: Evaluation A (Pre-1980).
Setting [13] is: Species/Cell Type: Salmonella typhimurium (one or more of the five standard strains: TA98, TA100, TA1535, TA1537, and TA1538), Assay Type: Histidine reverse gene mutation, Ames assay, Assay Code: SAL+, Evaluation Type: Evaluation A (Pre-1980).
[14] abbreviates: Species/Cell Type: Nonhuman, Assay Type: Sister-chromatid exchange (SCE) in vitro, Assay Code: SC2+D, Dose Response: With dose response, Evaluation Type: Evaluation B (Post-1980).
Where [15] appears, read: Species/Cell Type: Mouse embryo (AKR/ME) cells, Assay Type: Cell transformation, Assay Code: CTK-, Evaluation Type: Evaluation A (Pre-1980).
[16] abbreviates: Species/Cell Type: Human diploid fibroblasts, Assay Type: Unscheduled DNA synthesis (UDS) in vitro, DNA effects, Assay Code: UDH+, Evaluation Type: Evaluation A (Pre-1980).
Where [17] appears, read: Species/Cell Type: Saccharomyces cerevisiae, Assay Type: Mitotic recombination or gene conversion, Assay Code: YECT, Evaluation Type: Evaluation A (Pre-1980).

`CCC(C)c1cc([N+](=O)[O-])cc([N+](=O)[O-])c1O` (stereo unspecified): the mutagenic call reads like this: under setting [1], “active; positive”; under setting [2], “no conclusion”; (Species/Cell Type: Escherichia coli WP2 UVRA, Assay Type: Tryptophan reverse gene mutation, Assay Code: WPU-*, Activation: With metabolic activation, Evaluation Type: Evaluation A (Pre-1980)) “inactive; negative”; (Species/Cell Type: Escherichia coli polA (W3119 vs P3478), Assay Type: Rec-assay, DNA effects (bacterial DNA repair), Assay Code: RE1+, Evaluation Type: Evaluation A (Pre-1980)) “active; positive”; under setting [3], “inactive; negative”; under setting [4], “active; positive”. Besides, the mutagenic call is “inactive; negative” under setting [5] and “no conclusion” under setting [6].

Take `ClC(Cl)(Cl)c1ccccc1`: the mutagenic call under setting [1] was “active; positive”. In addition, under setting [7], the call was “active; positive”.

`CCOP(=S)(OCC)SCSP(=S)(OCC)OCC`: the mutagenic call is, setting by setting: (Species/Cell Type: Bacillus subtilis (H17 vs M45), Assay Type: Rec-assay, spot test, DNA effects (bacterial DNA repair), Assay Code: REWT, Evaluation Type: Evaluation A (Pre-1980)) “no conclusion”; under setting [8], “no conclusion”; under setting [3], “inactive; negative”; (Species/Cell Type: Human, Assay Type: Sister-chromatid exchange (SCE) in vitro, Assay Code: SC1-, Evaluation Type: Evaluation B (Post-1980)) “inactive; negative”; under setting [5], “inactive; negative”; (Species/Cell Type: Salmonella typhimurium (one or more of the five standard strains: TA98, TA100, TA1535, TA1537, and TA1538), Assay Type: Histidine reverse gene mutation, Ames assay, Assay Code: SAL-, Evaluation Type: Evaluation A (Pre-1980)) “inactive; negative”.

With `Clc1cccc(Cl)c1Cl`, the mutagenic call under setting [9] was “active; positive”.

As for `C=Cc1cc(C)cc(C)c1`, the mutagenic call was “active; positive” under setting [10] and “active; positive” under setting [11].

`CN(CCCC(=O)c1cccnc1)N=O`: the mutagenic call under setting [12] is “active; positive”.

With `CC1CN(N=O)C(=O)NC1=O` (stereo unspecified), the mutagenic call under setting [13] was “active; positive”.

As for `Cc1ccc(N)c(N)c1`, the mutagenic call under setting [9] is “active; positive”.

For `CCC[N+](=O)[O-]`, the mutagenic call (Species/Cell Type: Mammalian polychromatic erythrocytes, Assay Type: Micronucleus test, chromosome aberrations, Assay Code: MNTT, Evaluation Type: Evaluation B (Post-1980)) is listed as “no conclusion”.

In the case of `O=C(Nc1cccc(Cl)c1)OCC#CCCl`, under setting [1], the mutagenic call is “active; positive”.

Regarding `Cc1ccc2cc3ccc4c(F)cccc4c3cc2c1`, for the setting “Species/Cell Type: Mouse prostate cells, Assay Type: Cell transformation, Assay Code: CTM+, Evaluation Type: Evaluation A (Pre-1980)”, the mutagenic call was “active; positive”.

Turning to `O=NN(CCCl)C(=O)NCCCCCNC(=O)N(CCCl)N=O`, the mutagenic call reads like this: (Species/Cell Type: Drosophila melanogaster, Assay Type: Sex-linked recessive lethal gene mutation, Assay Code: SRL+, Evaluation Type: Evaluation A (Pre-1980)) “active; positive”; under setting [4], “active; positive”.

Consider `CCCC=O`, for which the mutagenic call is, setting by setting: (Species/Cell Type: Human lymphocytes, Assay Type: Sister-chromatid exchange (SCE) in vitro, Assay Code: SCL+, Evaluation Type: Evaluation B (Post-1980)) “active; positive”; (Species/Cell Type: Human, Assay Type: Sister-chromatid exchange (SCE) in vitro, Assay Code: SC1+, Evaluation Type: Evaluation B (Post-1980)) “active; positive”.

For the molecule `CC1(C)S[C@@H]2[C@H](NC(=O)[C@H](N)c3ccccc3)C(=O)N2[C@H]1C(=O)O`, where the note is “Species/Cell Type: Escherichia coli polA (W3119 vs P3478), Assay Type: Rec-assay, DNA effects (bacterial DNA repair), Assay Code: RE1-, Evaluation Type: Evaluation A (Pre-1980)”, the mutagenic call is “inactive; negative”.

With `O=P(N1CC1)(N1CC1)N1CCN(P(=O)(N2CC2)N2CC2)CC1`, the mutagenic call under setting [10] is “active; positive”, the mutagenic call under setting [11] was “active; positive” and the mutagenic call under setting [14] was “active; positive”.

Regarding `Cc1cccc(N=Nc2ccc(N(C)C)cc2)c1`, the mutagenic call runs as follows: under setting [2], “no conclusion”; (Species/Cell Type: Escherichia coli polA (W3110 vs P3478), Assay Type: Rec-assay, DNA effects (bacterial DNA repair), Assay Code: RE2-, Evaluation Type: Evaluation A (Pre-1980)) “inactive; negative”; under setting [8], “no conclusion”; (Species/Cell Type: Fischer rat embryo (RLV/1706) cells, Assay Type: Cell transformation, viral enhanced, Assay Code: CTR+, Evaluation Type: Evaluation A (Pre-1980)) “active; positive”; under setting [3], “inactive; negative”; under setting [15], “inactive; negative”. Moreover, the mutagenic call is, setting by setting: (Species/Cell Type: Neurospora crassa, Assay Type: Forward gene mutation, Assay Code: NEF+, Evaluation Type: Evaluation A (Pre-1980)) “active; positive”; under setting [14], “active; positive”; (Species/Cell Type: Nonhuman, Assay Type: Sister-chromatid exchange (SCE) in vivo, Assay Code: SC3+, Evaluation Type: Evaluation B (Post-1980)) “active; positive”; under setting [12], “active; positive”; (Species/Cell Type: Saccharomyces cerevisiae, Assay Type: Mitotic recombination or gene conversion, Assay Code: YEH+*, Activation: With metabolic activation, Evaluation Type: Evaluation A (Pre-1980)) “active; positive”; (Species/Cell Type: Salmonella typhimurium, Assay Type: Forward and reverse gene mutation, host-mediated assay, Assay Code: HMA-, Evaluation Type: Evaluation A (Pre-1980)) “inactive; negative”. Further, the mutagenic call (Species/Cell Type: Syrian hamster embryo (SHE) cells, Assay Type: Cell transformation, clonal assay, Assay Code: CTCT, Evaluation Type: Evaluation A (Pre-1980)) is “no conclusion”. For the same molecule, the call under setting [7] was “active; positive”.

Take `O=NN1CN2CN(C1)CN(N=O)C2`: the mutagenic call is “no conclusion” (Species/Cell Type: Mammalian polychromatic erythrocytes, Assay Type: Micronucleus test, chromosome aberrations, Assay Code: MNTT, Evaluation Type: Evaluation A (Pre-1980)); “inactive; negative” under setting [15]; “active; positive” under setting [14].

Consider `C=CC(OC(C)=O)c1ccccc1` (stereo unspecified), for which, under setting [6], the mutagenic call is recorded as “no conclusion”.

For the molecule `Nc1cccc2c1C(=O)c1c(NCCNCCO)ccc(NCCNCCO)c1C2=O`, the mutagenic call under setting [14] was “active; positive”.

As for `O=[N+]([O-])c1cccc2cc[nH]c12`, the mutagenic call under setting [13] is “active; positive”.

As to `COc1cc2c(c(O)c1OC)C13CCC(OC)CC1N(CC3)C2` (stereo unspecified), under setting [9], the mutagenic call is “active; positive”.

Take `OC1C=Cc2c(cc3ccc4cccc5ccc2c3c45)C1O` (stereo unspecified): the mutagenic call (Species/Cell Type: Chinese hamster lung (V79) cells, Assay Type: Forward gene mutation at the HPRT or ouabain locus, Assay Code: V79+, Evaluation Type: Evaluation A (Pre-1980)) was “active; positive”.

As to `Nc1c(O)cc(S(=O)(=O)O)c2ccccc12`, the mutagenic call under setting [6] is recorded as “no conclusion”.

For `c1ccc2c(c1)Oc1ccccc1O2`, the call (Species/Cell Type: Nonhuman, Assay Code: CCG-L, Evaluation Type: Evaluation A (Pre-1980)) was “inactive; negative”.

With `O/C=C/Cc1ccc2c(c1)OCO2`, under setting [16], the mutagenic call is “active; positive”.

As for `CCn1c2cc(=N[N+]#N)ccc-2c2ccc(N=[N+]=[N-])cc2c1-c1ccccc1`, the mutagenic call by setting is: under setting [17], “no conclusion”; under setting [5], “inactive; negative”; (Species/Cell Type: Saccharomyces cerevisiae, Assay Type: Reverse gene mutation, Assay Code: YERT, Evaluation Type: Evaluation A (Pre-1980)) “no conclusion”.

As for `NC(=O)/C=C/c1ccc([N+](=O)[O-])o1`, the mutagenic call runs as follows: under setting [16], “active; positive”; under setting [13], “active; positive”.

As to `O=S(=O)(O)c1ccccc1/C=C\c1ccc(-c2ccc(/C=C\c3ccccc3S(=O)(=O)O)cc2)cc1`, the mutagenic call runs as follows: (Species/Cell Type: Rodents, Sex: Male, Assay Type: Dominant lethal test, Assay Code: DLT-, Evaluation Type: Evaluation A (Pre-1980)) “inactive; negative”; under setting [17], “no conclusion”; under setting [6], “no conclusion”.
